“And” between values parts separate entries of the source, which are not always exact repeats. Equal entries are not always repeated. After the bases stand the sugars from the 5' end (letter, count) and the backbone: PS all phosphorothioate, else s phosphorothioate and o phosphodiester by linkage. Methylation of C is not given here. e = 2'-O-(2-methoxyethyl) (MOE); k = constrained ethyl (cEt); d = 2'-deoxy (DNA)
Target: APOL1
Conditions: ASO

Row | Sequence | target mRNA inhibition (A431, 2 µM) [%] | target mRNA inhibition (A431, 0.0625 µM) | target mRNA inhibition (A431, 0.25 µM) | target mRNA inhibition (A431, 1 µM) | other results
1 | GTGTTATATTTGATCC (sugars kkddddekekeddddd, PS) | 96 | – | – | – | –
2 | GTGTTATATTTGATCC (sugars kkddddkekekddddd, PS) | 78 | – | – | – | –
3 | GTGTTATATTTGATCC (sugars kkkddddkekekdddd, PS) | 75 | – | – | – | –
4 | GTTATATTTGATCCTC (sugars k2 d4 e4 k2 d4, PS) | 69 | – | – | – | –
5 | GTTATATTTGATCCTC (sugars k3 d5 k3 d5, PS) | 100 | 86% | 93% | 99% | –
6 | GTTATATTTGATCCTC (sugars kkkddddkdkdkdddd, PS) | 92 | – | – | – | –
7 | GTTATGAAATTATTGG (sugars kkdddddkekeddddd, PS) | 68 | – | – | – | –
8 | GTTATGAAATTATTGG (sugars kkddddkdkdkddddd, PS) | 71 | – | – | – | –
9 | GTTATGAAATTATTGG (sugars kkkddddkekeddddd, PS) | 93 | 42% | 75% | 85% | target mRNA inhibition (A431, 0.0156 µM): 9%
10 | GTTCAAAAGCAGCATT (sugars k2 d4 e3 k2 d5, PS) | 86 | – | – | – | –
11 | GTTCAAAAGCAGCATT (sugars kddddkekekeddddd, PS) | 33 | – | – | – | –
12 | GTTCAAAAGCAGCATT (sugars kkdddddkekeddddd, PS) | 89 | – | – | – | –
13 | GTTCAAAAGCAGCATT (sugars kkddddkdkdkddddd, PS) | 73 | – | – | – | –
14 | GTTCTAACTCTTGGGC (sugars k3 d4 k3 e1 d5, PS) | 58 | – | – | – | –
15 | GTTCTAACTCTTGGGC (sugars kekddddeekkddddd, PS) | 86 | – | – | – | –
16 | GTTCTAACTCTTGGGC (sugars kkdddddkekeddddd, PS) | 84 | – | – | – | –
17 | GTTCTAACTCTTGGGC (sugars kkkddddkdkdkdddd, PS) | 73 | – | – | – | –
18 | GTTCTAACTCTTGGGC (sugars kkkddddkekeddddd, PS) | 66 | – | – | – | –
19 | GTTTCATATTCACCCG (sugars k4 d9 k3, PS) | – | 82% | 92% | 97% | –
20 | GTTTTGTAAGTGCAAC (sugars kkddddkekekkdddd, PS) | 62 | – | – | – | –
21 | TAATGTCTCAAACTCC (sugars k4 d9 k3, PS) | – | 24% | 50% | 80% | –
22 | TAATTCTATTAGAGGG (sugars k2 d4 e3 k2 d5, PS) | 59 | – | – | – | –
23 | TAATTCTATTAGAGGG (sugars kkkddddkekekdddd, PS) | 41 | – | – | – | –
24 | TACATTTGGAGATCTG (sugars k4 d9 k3, PS) | – | 61% | 80% | 90% | –
25 | TAGTGCTATAGAGGGA (sugars k3 d10 k3, PS) | – | 57% | 86% | 95% | –
26 | TATCAGATGGGTACTT (sugars kkkddddkekeddddd, PS) | 37 | – | – | – | –
27 | TATTCTCATGGTACAG (sugars k3 d4 k3 e1 d5, PS) | 79 | – | – | – | –

Row | Sequence | target mRNA inhibition (A431, 2 µM) [%] | target mRNA inhibition (A431, 0.0625 µM) | target mRNA inhibition (A431, 0.25 µM) | target mRNA inhibition (A431, 1 µM) | other results
28 | TATTTCTTGATGTGGT (sugars k2 d4 e4 k2 d4, PS) | 96 | – | – | – | –
29 | TATTTCTTGATGTGGT (sugars kkkddddkekekdddd, PS) | 95 | 61% | 80% | 89% | target mRNA inhibition (A431, 0.0156 µM): 17%
30 | TCACATACTCTCTGGG (sugars k4 d9 k3, PS) | – | 24% | 62% | 77% | –
31 | TCAGATGGGTACTTCT (sugars k2 d4 e3 k2 d5, PS) | 88 | – | – | – | –
32 | TCAGATGGGTACTTCT (sugars kkddddekekeddddd, PS) | 91 | 30% | 61% | 86% | target mRNA inhibition (A431, 0.0156 µM): 8%
33 | TCAGATGGGTACTTCT (sugars kkddddkdkdkddddd, PS) | 88 | – | – | – | –
34 | TCAGATGGGTACTTCT (sugars kkddddkekekkdddd, PS) | 62 | – | – | – | –
35 | TCAGTCAGCAGGAGTA (sugars k4 d9 k3, PS) | – | 55% | 69% | 70% | –
36 | TCCGTCAATATATTCT (sugars k2 d4 e3 k2 d5, PS) | 96 | 59% | 84% | 93% | target mRNA inhibition (A431, 0.0156 µM): 27%
37 | TCCGTCAATATATTCT (sugars kkddddekekeddddd, PS) | 97 | 61% | 86% | 96% | target mRNA inhibition (A431, 0.0156 µM): 33%; target mRNA inhibition (A431, 0.04 µM): 50%
38 | TCCTTGCTGCACTGCC (sugars k4 d9 k3, PS) | – | 67% | 88% | 95% | –
39 | TCTATTAGAGGGCTAG (sugars kdddddkekekddddd, PS) | 42 | – | – | – | –
40 | TCTATTAGAGGGCTAG (sugars kddddkekekeddddd, PS) | 37 | – | – | – | –
41 | TCTATTAGAGGGCTAG (sugars kkddddekekeddddd, PS) | 67 | – | – | – | –
42 | TCTCATGGTACAGGAG (sugars kdddddkekekddddd, PS) | 61 | – | – | – | –
43 | TCTGTTAGATACAAAC (sugars k4 d9 k3, PS) | – | 34% | 63% | 78% | –
44 | TGAACGCAATGCTGAC (sugars k4 d9 k3, PS) | – | 32% | 74% | 90% | –
45 | TGAAGATTGGCTCTGG (sugars k3 d4 k3 e1 d5, PS) | 61 | – | – | – | –
46 | TGATGTGGGACTTGTT (sugars k4 d9 k3, PS) | – | 61% | 84% | 93% | –
47 | TGGGAATTATGGAATT (sugars kkddddekekeddddd, PS) | 78 | – | – | – | –
48 | TGGGCGAGCGATTGTC (sugars k4 d9 k3, PS) | – | 42% | 70% | 83% | –
49 | TGGTCACAGTTCTTGG (sugars k4 d9 k3, PS) | – | 80% | 90% | 95% | –
50 | TGGTTCAAAAGCAGCA (sugars k2 d4 e3 k2 d5, PS) | 93 | 68% | 85% | 91% | target mRNA inhibition (A431, 0.0156 µM): 41%
51 | TGTAAGTGCAACCAAT (sugars kkddddkekekkdddd, PS) | 43 | – | – | – | –
52 | TGTATTTCTTGATGTG (sugars kkkddddkekeddddd, PS) | 71 | – | – | – | –
53 | TGTGCTCAGCTATGGA (sugars k4 d9 k3, PS) | – | 41% and 55% | 70% and 74% | 88% and 87% | –
54 | TGTTATATTTGATCCT (sugars k3 d10 k3, PS) | – | 67% | 90% | 98% | –

Row | Sequence | target mRNA inhibition (A431, 2 µM) [%] | target mRNA inhibition (A431, 0.0625 µM) | target mRNA inhibition (A431, 0.25 µM) | target mRNA inhibition (A431, 1 µM) | other results
55 | TGTTATATTTGATCCT (sugars kddddkekekeddddd, PS) | 51 | – | – | – | –
56 | TGTTATATTTGATCCT (sugars kkddddkekekkdddd, PS) | 46 | – | – | – | –
57 | TGTTATATTTGATCCT (sugars kkkddddkekeddddd, PS) | 71 | – | – | – | –
58 | TGTTTGCATTTGGGTC (sugars k4 d9 k3, PS) | – | 90% and 83% | 98% and 94% | 99% and 96% | –
59 | TTACATGCACGATCTC (sugars k3 d10 k3, PS) | – | 18% | 56% | 78% | –
60 | TTATATTTGATCCTCA (sugars k2 d4 e3 k2 d5, PS) | 96 | – | – | – | –
61 | TTATATTTGATCCTCA (sugars kkddddkekekddddd, PS) | 91 | – | – | – | –
62 | TTATGAAATTATTGGT (sugars k2 d4 e3 k2 d5, PS) | 39 | – | – | – | –
63 | TTATGAAATTATTGGT (sugars kkdddddkekeddddd, PS) | 63 | – | – | – | –
64 | TTCTATTAGAGGGCTA (sugars k2 d4 e4 k2 d4, PS) | 76 | – | – | – | –
65 | TTCTATTGGGCCTCAG (sugars k4 d9 k3, PS) | – | 74% | 87% | 94% | –
66 | TTCTCATGGTACAGGA (sugars kkdddddkekeddddd, PS) | 78 | – | – | – | –
67 | TTGTAAGTGCAACCAA (sugars k2 d4 e3 k2 d5, PS) | 83 | – | – | – | –
68 | TTGTAAGTGCAACCAA (sugars k2 d4 e4 k2 d4, PS) | 70 | – | – | – | –
69 | TTGTAAGTGCAACCAA (sugars kkdddddkekeddddd, PS) | 81 | – | – | – | –
70 | TTTATACCAGTGTCTT (sugars k3 d4 k3 e1 d5, PS) | 80 | – | – | – | –
71 | TTTATACCAGTGTCTT (sugars kkdddddkekeddddd, PS) | 84 | – | – | – | –
72 | TTTATACCAGTGTCTT (sugars kkddddekekeddddd, PS) | 90 | – | – | – | –
73 | TTTCATATTCACCCGA (sugars k4 d9 k3, PS) | – | 46% | 68% | 86% | –
74 | TTTGTAAGTGCAACCA (sugars k3 d4 k3 e1 d5, PS) | 56 | – | – | – | –
75 | TTTGTAAGTGCAACCA (sugars kdddddkekekddddd, PS) | 99 | 58% | 86% | 96% | target mRNA inhibition (A431, 0.0156 µM): 24%
76 | TTTGTAAGTGCAACCA (sugars kkddddekekeddddd, PS) | 97 | 59% | 83% | 96% | target mRNA inhibition (A431, 0.0156 µM): 29%
77 | TTTGTAAGTGCAACCA (sugars kkddddkekekddddd, PS) | 98 | – | – | – | –
78 | TTTGTAAGTGCAACCA (sugars kkddddkekekkdddd, PS) | 87 | – | – | – | –
79 | TTTGTAAGTGCAACCA (sugars kkkddddkekeddddd, PS) | 49 | – | – | – | –
80 | TTTGTAAGTGCAACCA (sugars kkkddddkekekdddd, PS) | 63 | – | – | – | –

Source: the OligoGym collection
